20 compounds from PubChem BioAssay AID248 (DTP/NCI, 2004) can be followed below.

In the assay the test system is L1210 leukemia ip in BDF1 mice, survival T/C. Briefly: NCI In Vivo Anticancer Drug Screen. Data for tumor model L1210 Leukemia (intraperitoneal) in B6D2F1 (BDF1) mice. The conditions noted are these: endpoint: mean survival time, higher = longer survival. Summed up:
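Tumor was transplanted into mice, which were then dosed with test compound or vehicle alone. Survival was recorded for each group, and the treated figure was expressed relative to the control figure.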

The mark [1] stands for this setting: dose: 100.0 mg/kg/injection, schedule: Q04DX002 (ip), vehicle: saline with Tween-80.
Setting [2] is: dose: 200.0 mg/kg/injection, schedule: Q04DX002 (ip), vehicle: saline with Tween-80.
Setting [3] is: dose: 100.0 mg/kg/injection, schedule: Q01DX001 (ip), vehicle: saline.
[4] abbreviates: dose: 200.0 mg/kg/injection, schedule: Q01DX001 (ip), vehicle: saline.
The mark [5] stands for this setting: dose: 400.0 mg/kg/injection, schedule: Q01DX001 (ip), vehicle: saline.
Where [6] appears, read: dose: 100.0 mg/kg/injection, schedule: Q04DX003 (ip), vehicle: saline.
Setting [7] is: dose: 200.0 mg/kg/injection, schedule: Q04DX003 (ip), vehicle: saline.
Where [8] appears, read: dose: 400.0 mg/kg/injection, schedule: Q04DX003 (ip), vehicle: saline.
Setting [9] is: dose: 100.0 mg/kg/injection, schedule: Q01DX001 (ip), vehicle: Klucel (hydroxypropylcellulose) (HPC).
Setting [10] is: dose: 100.0 mg/kg/injection, schedule: Q01DX009 (ip), vehicle: saline.
Where [11] appears, read: dose: 200.0 mg/kg/injection, schedule: Q01DX009 (ip), vehicle: saline.

Where “and” joins values, the source holds several entries; their conditions need not be identical. Equal values may be shown once. Toxic doses and inconclusive results are not listed.

For `NC(N)=NCCCS(=O)(=O)Nc1ccc(Nc2c3ccccc3nc3cc([N+](=O)[O-])ccc23)cc1`, the T/C by setting is: (dose: 3.0 mg/kg/injection, schedule: Q01DX009 (ip), vehicle: water) 186 % of control; (dose: 6.0 mg/kg/injection, schedule: Q01DX009 (ip), vehicle: water) 160 % of control; (dose: 6.25 mg/kg/injection, schedule: Q04DX002 (ip), vehicle: saline with Tween-80) 102 % of control; (dose: 6.25 mg/kg/injection, schedule: Q04DX003 (ip), vehicle: water) 186 % of control; (dose: 12.5 mg/kg/injection, schedule: Q04DX002 (ip), vehicle: saline with Tween-80) 120 % of control; (dose: 25.0 mg/kg/injection, schedule: Q04DX002 (ip), vehicle: saline with Tween-80) 124 % of control. Further, the T/C (dose: 50.0 mg/kg/injection, schedule: Q04DX003 (ip), vehicle: water) was 161 % of control; the T/C under setting [1] was 150 % of control; the T/C under setting [2] was 183 % of control.
For the compound `O=C(O)CCCCCN1C(=O)CCC1=O`, the T/C by setting is: (dose: 75.0 mg/kg/injection, schedule: Q04DX003 (ip), vehicle: saline) 95 % of control; (dose: 150.0 mg/kg/injection, schedule: Q04DX003 (ip), vehicle: saline) 103 % of control; (dose: 300.0 mg/kg/injection, schedule: Q04DX003 (ip), vehicle: saline) 92 % of control.
With `CCC(C)COS(=O)(=O)c1ccc(C)cc1` (configuration not stated), the T/C is 103 % of control under setting [1]; 103 % of control under setting [2]; 100 % of control (dose: 400.0 mg/kg/injection, schedule: Q04DX002 (ip), vehicle: saline with Tween-80).
For the compound `C[N+]1(Cc2ccccc2)C2CCC1C(=O)N(Cc1ccccc1)C2=O` (configuration not stated), the T/C runs as follows: (dose: 75.0 mg/kg/injection, schedule: Q01DX001 (ip), vehicle: saline) 103 % of control; (dose: 150.0 mg/kg/injection, schedule: Q01DX001 (ip), vehicle: saline) 116 % of control.
Turning to `O=C1C(Br)C(Br)C(=O)N1c1ccccc1F` (configuration not stated), the T/C (dose: 12.5 mg/kg/injection, schedule: Q01DX009 (ip), vehicle: other) is 96 % of control and the T/C (dose: 25.0 mg/kg/injection, schedule: Q01DX009 (ip), vehicle: other) was 92 % of control.
On to `CC1CC(=O)CC(C)(C)N1` (configuration not stated), for which the T/C is 105 % of control under setting [3], 98 % of control under setting [4] and 94 % of control under setting [5].
As for `O=C(O)C1CCC(C(=O)O)NC1` (configuration not stated), the T/C reads like this: under setting [6], 106 % of control; under setting [7], 102 % of control; under setting [8], 101 % of control.
`COc1ccc(CCNC(=S)NC(=O)c2ccccc2)cc1OC`: the T/C reads like this: (dose: 100.0 mg/kg/injection, schedule: Q01DX009 (sc), vehicle: olive oil, sesame oil, peanut oil) 98 % of control; (dose: 100.0 mg/kg/injection, schedule: Q04DX003 (sc), vehicle: olive oil, sesame oil, peanut oil) 100 % of control; (dose: 200.0 mg/kg/injection, schedule: Q01DX009 (sc), vehicle: olive oil, sesame oil, peanut oil) 104 % of control; (dose: 200.0 mg/kg/injection, schedule: Q04DX003 (sc), vehicle: olive oil, sesame oil, peanut oil) 98 % of control; (dose: 400.0 mg/kg/injection, schedule: Q01DX009 (sc), vehicle: olive oil, sesame oil, peanut oil) 98 % of control; (dose: 400.0 mg/kg/injection, schedule: Q04DX003 (sc), vehicle: olive oil, sesame oil, peanut oil) 103 % of control.
Regarding `Nc1nc2c(ncn2-c2cccc(NS(=O)(=O)c3cccc(S(=O)(=O)F)c3)c2)c(=O)[nH]1`, the T/C (dose: 25.0 mg/kg/injection, schedule: Q01DX001 (ip), vehicle: Klucel (hydroxypropylcellulose) (HPC)) is 96 % of control; the T/C (dose: 50.0 mg/kg/injection, schedule: Q01DX001 (ip), vehicle: Klucel (hydroxypropylcellulose) (HPC)) is 98 % of control; the T/C under setting [9] was 94 % of control.
Take `CCS(=O)(=O)/C=C/c1ccc(Cl)c(Cl)c1`: the T/C (dose: 100.0 mg/kg/injection, schedule: Q04DX003 (ip), vehicle: Klucel (hydroxypropylcellulose) (HPC)) is 110 % of control; the T/C (dose: 200.0 mg/kg/injection, schedule: Q04DX003 (ip), vehicle: Klucel (hydroxypropylcellulose) (HPC)) was 97 % of control; the T/C (dose: 400.0 mg/kg/injection, schedule: Q04DX003 (ip), vehicle: Klucel (hydroxypropylcellulose) (HPC)) was 107 % of control.
Take `BrCC(CBr)(CBr)CBr`: the T/C is, setting by setting: under setting [10], 103 % of control; under setting [6], 93 % of control; under setting [11], 97 % of control; under setting [7], 100 % of control; under setting [8], 101 % of control.
Turning to `Cc1cc(O)c2cc3c(O)c(O)ccc3cc2c1`, the T/C is 94 % of control (dose: 0.5 mg/kg/injection, schedule: Q01DX015 (ip), vehicle: saline); 96 % of control (dose: 1.0 mg/kg/injection, schedule: Q01DX015 (ip), vehicle: saline); 96 % of control (dose: 2.0 mg/kg/injection, schedule: Q01DX015 (ip), vehicle: saline); 100 % of control and 109 % of control (dose: 4.0 mg/kg/injection, schedule: Q01DX015 (ip), vehicle: saline); 112 % of control (dose: 5.0 mg/kg/injection, schedule: Q01DX001 (ip), vehicle: saline); 108 % of control (dose: 6.2 mg/kg/injection, schedule: Q01DX001 (ip), vehicle: carboxymethylcellulose (CMC)). Also, the T/C by setting is: (dose: 8.0 mg/kg/injection, schedule: Q01DX015 (ip), vehicle: saline) 103 % of control; (dose: 10.0 mg/kg/injection, schedule: Q01DX001 (ip), vehicle: saline) 115 % of control; (dose: 12.5 mg/kg/injection, schedule: Q01DX001 (ip), vehicle: carboxymethylcellulose (CMC)) 104 % of control; (dose: 25.0 mg/kg/injection, schedule: Q01DX001 (ip), vehicle: carboxymethylcellulose (CMC)) 110 % of control.
In the case of `CCCCCCCCCCC(=O)O`, the T/C runs as follows: under setting [9], 105 % of control; (dose: 200.0 mg/kg/injection, schedule: Q01DX001 (ip), vehicle: Klucel (hydroxypropylcellulose) (HPC)) 105 % of control; (dose: 300.0 mg/kg/injection, schedule: Q01DX001 (ip), vehicle: Klucel (hydroxypropylcellulose) (HPC)) 101 % of control.
Regarding `COC(=O)Cc1ccc2c(c1)OCO2`, the T/C under setting [3] was 97 % of control, the T/C under setting [4] is 101 % of control and the T/C under setting [5] was 103 % of control.
As for `Cc1ccccc1N(C)C`, the T/C was 106 % of control (dose: 50.0 mg/kg/injection, schedule: Q04DX002 (ip), vehicle: saline with Tween-80); 98 % of control under setting [1]; 92 % of control under setting [2].
For the compound `C/C(=C\Cl)CN1C(=O)c2ccccc2C1=O`, the T/C is 93 % of control under setting [10]; 97 % of control under setting [6]; 113 % of control under setting [11]; 101 % of control under setting [7]; 102 % of control (dose: 400.0 mg/kg/injection, schedule: Q01DX009 (ip), vehicle: saline); 105 % of control under setting [8].
`Cc1cccc(C)c1NC(=S)N(CCC#N)Cc1ccccc1`: the T/C runs as follows: (dose: 100.0 mg/kg/injection, schedule: Q01DX009 (ip), vehicle: Klucel (hydroxypropylcellulose) (HPC)) 107 % of control; (dose: 200.0 mg/kg/injection, schedule: Q01DX009 (ip), vehicle: Klucel (hydroxypropylcellulose) (HPC)) 94 % of control; (dose: 400.0 mg/kg/injection, schedule: Q01DX009 (ip), vehicle: Klucel (hydroxypropylcellulose) (HPC)) 96 % of control.
As for `Cc1ccc(S(=O)(=O)NCCC(=N)N)cc1`, the T/C runs as follows: under setting [3], 93 % of control; under setting [4], 101 % of control.
Take `CCCC(=O)OC1=CC(=O)c2ccccc2C1=O`: the T/C reads like this: (dose: 75.0 mg/kg/injection, schedule: Q01DX001 (ip), vehicle: other) 94 % of control; (dose: 150.0 mg/kg/injection, schedule: Q01DX001 (ip), vehicle: other) 89 % of control.
`CCCCC(C)(O)C(F)(F)F` (configuration not stated): the T/C is 96 % of control (dose: 100.0 mg/kg/injection, schedule: Q01DX001 (ip), vehicle: steriod suspending solution); 91 % of control (dose: 200.0 mg/kg/injection, schedule: Q01DX001 (ip), vehicle: steriod suspending solution); 100 % of control (dose: 400.0 mg/kg/injection, schedule: Q01DX001 (ip), vehicle: steriod suspending solution).
